Experiment [1] deals with monocyte-derived dendritic cells. The experiment is described as follows: Monocyte-derived dendritic cell live/dead staining and culture images. It is filed as cell-based, human. The method, then: FIG. 14. Effect of MBK50 on CD14+ monocytes. FIG. 14(A) A scheme of the experimental procedure. Monocyte-derived dendritic cells were prepared from magnetic beads sorted CD14+ cells (from PBMC of a healthy donor) after culture for 4 days in the presence of GM-CSF+IL-4 (each 50 ng/ml). Cells were washed and cultured at 1×10^6/ml in a 96 well plate (200 μl/well in triplicates) without or with LPS (100 ng/ml), poly I:C (10 μg/ml), or sCD40L (1 μg/ml) in the presence of MBK50 (16 or 32 μM) or mutant peptide (32 μM) for 2 days. Live cells were determined using live/dead staining followed by flow cytometry analysis. FIG. 14(B) A representative flow profile with the gating strategy for live cells is shown. FIG. 14(C) Averages percentage of live cells for each culture condition are shown. *p<0.05, **p<0.01, ***p<0.001, ****p<0.0001
FIG. 15. Representative images of monocyte derived dendritic cells (MDCs) from two human healthy donors after treatment with MBK50, mutant peptide, or PBS for two days in U-bottom 96 well culture. The diameter of the ring approximately corresponds to the cell volume/numbers in each well.
Similar experiments were also performed with monocyte-derived dendritic cells as a model of human dendritic cells. […] Live cells were determined as shown above using live/dead staining.

Another experiment relates to U937 cell line. The experiment is described as follows: MTT assay, U937. It is filed as cell-based. The conditions noted are these: U973 monocytic leukemia cell line. As to the method: (§1) FIG. 6. Viral and cellular responses to K-Rta peptide; identification of VGN50. (a) Protein sequence alignment. FIG. 6(A) The effect of VGN50 on various cancer cell types. MTT assays were performed with the indicated cell lines treated with various VGN50 concentrations. The O.D. of mock-treated samples were set as 100%, and O.D. from detergent treated cells were set as 0%. Percentage viability+/−SD was calculated for each treatment (N=3 samples/treatment). FIG. 6(B) Viability assay with flow cytometry. Cell viability was measured in triplicate with live/dead staining and the cell killing effects on cancer cells was compared with normal peripheral blood mononuclear cells (PBMC) from three healthy donors. Results are presented as percentage viability+/−SD deviation (N=3 samples/group).
(§2) As shown in FIG. 6(a), multiple cancer cell lines were used for MTT assay to evaluate cancer cell killing efficacies of the MBK50 peptide at different concentrations (cell variability studies). […] Importantly, human peripheral blood mononuclear cells (PBMCs) from healthy donors were approximately 10-fold less sensitive to MBK-mediated killing compared to myeloid and lymphoid cancer cell lines (e.g., THP-1 and BCBL-1) as assessed by flow cytometry after live/dead staining (FIG. 6(b)). […]
On the technique in general: Formazan colour is commonly taken as a measure of viable cells.

Another experiment deals with human CD3 T cells. The experiment can be described thus: CD3 T cell proliferation after anti-CD3/28 stimulation, flow cytometry. Format: cell-based. The conditions noted are these: 32 μM, 24 hours after 16 hours anti-CD3/28. As to the method: To evaluate the effect of the peptide on human CD3 T cells, CD3 T cells were enriched by magnetic beads (CD3 positive selection beads, Stemcell technology) from PBMC samples from 5 healthy donors and stimulated with anti-CD3/28 tetramer (Stemcell technology) in triplicates for 16 hours before treating with PBS, MBK50 (32 μM) and Mutant peptide (32 μM) for 24 hours. Activated proliferating IRF4^+Ki67^+ CD3 T cells (red square in FIG. 5) in the culture were analyzed by live/dead-red staining (Invitrogen) and intracellular staining with anti-Ki67-FITC (Biolegend) and anti-IRF4-APC (Biolegend) antibodies. A representative flow cytometry profiles are shown in FIG. 5(a) for gating live CD3 T cell population and FIG. 5(b) Ki67 vs IRF4 for the gated live CD3 T cells. For FIG. 5(c-e), the means of triplicate cultures in each experiment for live cells % (c, n=5), total CD3 T cell numbers (d, n=5), and % of Ki67^+ cells (e, n=3) are shown in the top panel. The bottom panel are normalized data to PBS control cultures. P values calculated with Prism using one-way ANOVA with paired comparison. p<0.05 statistically significant.
A general note: Flow cytometry measures light scatter and fluorescence of single cells or particles in a stream.

Experiment [2] concerns human peripheral blood mononuclear cells (PBMCs). The experiment is described as follows: Viability by flow cytometry after live/dead staining, PBMC versus cancer cell lines. It is filed as cell-based. The conditions noted are these: healthy donor PBMCs vs e.g. THP-1 and BCBL-1. As to the method: as §1, §2
The subject of another experiment is MYC. The experiment can be described thus: SLAM-seq, MYC transcription. Conditions: 24 μM, 30 min then 4sU 1 hour. It is filed as cell-based. The method, then: FIG. 9. Profiling Peptide targets with Thiol(SH)-linked alkylation for the metabolic sequencing of RNA (SLAM seq). Differences in active transcription in presence of peptide drug was examined. […] Total RNA-sequence performed 24 hours after drug incubation.
Thiol(SH)-linked alkylation for the metabolic sequencing of RNA (SLAM seq), an orthogonal-chemistry-based RNA sequencing technology detects 4-thiouridine (s4U) incorporation in RNA species at single-nucleotide resolution. Using SLAM-seq method, BC-1 cells were incubated with peptide drug and peptide with three amino acid substitute to alanine was used as a control peptide. Peptide drug was incubated in BC-1 cell culture (24 μM) and after 30 min drug incubation, 4sU (300 μM in final concentration) was added into culture media for 1 hour. Total RNA was isolated in the end of 1 hour 4sU incubation and alkylated RNA samples were subjected to SLAM-seq. Samples were duplicated and changed gene expression vs mock-treated cells (P<0.05) was marked in red. […] IGV viewer was used to visualize sequence reads at MYC region (Chr. 8). […] Log 2 fold changes and adjusted P-value of MYC down regulation in both BCBL-1 and BC-1 cells are depicted in underneath of panel.

In the case of LSSILQGLYQLDT [MBK50], the “percentage of live cells” value in experiment [1] (16 or 32 μM, 2 days, PBS, LPS, sCD40L conditions, vs control peptide or PBS) is listed as “significantly reduced”. In addition, the “appearance of MDCs in culture” value in experiment [1] (two days, U-bottom 96 well culture) was “not clumped and were more spread and adhesive”. Further, in the experiment with U937 cell line, the “sensitivity to cell killing” value is given as “sensitive”. The “effect on activated proliferating CD3 T cells” value with human CD3 T cells is listed as “preferentially targets actively dividing cells”. Moreover, the “lower sensitivity of PBMCs to killing compared to myeloid and lymphoid cancer cell lines” value in experiment [2] was “approximately 10 fold”. In addition, the “MYC transcript species containing T→C mutation (Myc transcription)” value is “significantly decreased” in the experiment on MYC and “strongly down-regulated” with MYC (listed as peptide drug).
